Like-named read-outs stand apart in the source and are kept apart here. Each block holds one compound with its values, some of them ahead of it.
How the values were obtained:
[1] = Pharmacokinetic test in mice (IV and PO); type: in vivo, BALB/c mice; settings: for Cmax / AUC(0-inf) / AUC(0-t) / MRT inf / Vd / Tmax: BALB/c, mouse, plasma; for MRT inf: read-out: MRT(0-∞); for Vd: read-out: Vz
Method in brief: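 BALB/c mice (3 per group) given single IV or intragastric doses; blood sampled orbitally at 0.25–24 h into K2-EDTA tubes for plasma. Concentrations measured by LC-MS/MS; parameters from non-compartmental analysis with linear-log trapezoidal method.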

[2] = Phase I metabolic stability in rat liver microsomes (RLMs); type: in vitro ADME, Sprague-Dawley rats; settings: RLM; for Remaining rate (NCF = 60 min): buffer instead of NADPH regeneration system; for Remaining rate (T = 60 min): with NADPH; for CLint scaled at 1 µM / half-life at 1 M / microsomal CLint at 1 µM: Sprague-Dawley, rat, liver microsomes, pH 7.4; for microsomal CLint at 1 µM: read-out: CLint (mic)
Method: (§1) Phase I metabolic stability of the test compounds in liver microsomes of CD-1 mice (MLMs), Sprague-Dawley rats (RLMs), beagle dogs (DLMs), cynomolgus monkeys (CLMs), and humans (HLMs) was evaluated.
(§2) The animal and human liver microsomes used in the test system were purchased from Xenotech, Corning, or other qualified suppliers and stored in a freezer at a temperature below −60° C. prior to use.
(§3) The test samples and control compounds were separately incubated with animal and human liver microsomes at 37±1° C. for a period of incubation time up to 60 min. The samples were removed at the indicated time points, and the reaction was stopped with acetonitrile or other organic solvents containing an internal standard. After centrifugation, the resulting supernatants were assayed by liquid chromatography-tandem mass spectrometry (LC-MS/MS).
(§4) 73.21 g of dipotassium hydrogenphosphate trihydrate and 10.78 g of potassium dihydrogenphosphate were dissolved in 4000 mL of ultrapure water. The solution was adjusted to pH 7.40±0.10 with 10% phosphoric acid or 1 M potassium hydroxide to make a final concentration of 100 mM.
(§5) The test sample powder was prepared into a stock solution at a certain concentration with DMSO or other organic solvents, which was then further diluted with a proper organic solvent.
(§6) Microsomes of each species were diluted into a 2× working solution with a 100 mM potassium phosphate buffer. The final concentration of the microsomes in the reaction system was 0.5 mg/mL.
(§7) An appropriate amount of nicotinamide adenine dinucleotide phosphate (NADP) and isocitric acid (ISO) powder was weighed out, dissolved in a magnesium chloride solution, and shaken and mixed well. An appropriate amount of isocitrate dehydrogenase (IDH) was added, and the mixture was mixed well by gently turning upside down. The final concentrations in the reaction system were: 1 mM NADP, 1 mM magnesium chloride, 6 mM ISO, and 1 unit/mL IDH.
(§8) Incubation was performed in a 96-well plate. Eight incubation plates were prepared and designated T0, T5, T15, T30, T45, T60, Blank60, and NCF60, respectively. The first 6 plates corresponded to reaction time points of 0, 5, 15, 30, 45, and 60 min, respectively. No test sample or control compound was added to the Blank60 plate, and samples were taken after 60 min of incubation. In the NCF60 plate, incubation was performed for 60 min using the potassium phosphate buffer instead of the NADPH regeneration system solution. Three replicates were made for samples in all conditions.
(§9) The microsomes and the test sample or control compound were mixed, and then the incubation plates Blank60, T5, T15, T30, T45, and T60 except for TO and NCF60 were placed in a 37° C. water bath for pre-incubation for about 10 min. In the incubation plate TO, a stop solution was first added, followed by addition of the NADPH regeneration system working solution, and 98 μL of the potassium phosphate buffer was added to each sample well of the incubation plate NCF60 to initiate the reaction. After the pre-incubations of the incubation plates Blank60, T5, T15, T30, T45, and T60 were completed, 98 μL of the NADPH regeneration system working solution was added to each sample well to initiate the reaction. The reaction temperature was 37±1° C., the final volume of the reaction was 200 μL, and the reaction system included 0.5 mg/mL microsomes, […], 1 mM NADP, 6 mM ISO, and 1 unit/mL IDH.
(§10) At 5 min, 15 min, 30 min, 45 min, and 60 min, a cold stop solution containing an internal standard was added to the reaction plate to stop the reaction.
(§11) All the reaction plates after the reaction was stopped were shaken well and centrifuged at 3220×g at 4° C. for 20 min. After the supernatant was diluted according to a certain proportion, LC-MS/MS analysis was performed.
(§12) Sample analysis was performed by the liquid chromatography-tandem mass spectrometry (LC-MS/MS) method without standard curves and quality control samples. […]

[3] = Phase I metabolic stability in mouse liver microsomes (MLMs); type: in vitro ADME, CD-1 mice; settings: MLM; for CLint scaled at 1 µM / half-life at 1 M / microsomal CLint at 1 M: CD-1, mouse, liver microsomes, pH 7.4; for microsomal CLint at 1 M: read-out: CLint (mic); for Remaining rate (NCF = 60 min): buffer instead of NADPH regeneration system; for Remaining rate (T = 60 min): with NADPH
Method: as §1, §2, §3, §4, §5, §6, §7, §8, §9, §10, §11, §12

[4] = Phase I metabolic stability in dog liver microsomes (DLMs); type: in vitro ADME, beagle dogs; set-up: half-life: dose or concentration left out as unconfirmed; settings: DLM; for Remaining rate (NCF = 60 min): buffer instead of NADPH regeneration system; for Remaining rate (T = 60 min): with NADPH; for CLint scaled at 1 µM / half-life / microsomal CLint at 1 M: beagle, dog, liver microsomes, pH 7.4; for microsomal CLint at 1 M: read-out: CLint (mic)
Method: as §1, §2, §3, §4, §5, §6, §7, §8, §9, §10, §11, §12

[5] = po, 10 mg/kg, read-out: C0/Cmax
[6] = po, 100 mg/kg, read-out: C0/Cmax
[7] = mice, PO 30 mg/kg (Cmax), read-out: C0/Cmax

Cmax [1, 5]: 8.97 µM
Cmax [1, 6]: 30.5 µM
AUC(0-inf) ([1]; mice, IV 2 mg/kg): 9.88 µM·h
AUC(0-t) ([1]; mice, IV 2 mg/kg): 9.88 µM·h
Cmax ([1]; mice, IV 2 mg/kg (C0)): 4.52 µM
MRT inf ([1]; mice, IV 2 mg/kg): 2.19 h
Vd ([1]; mice, IV 2 mg/kg): 0.684 L/kg
AUC(0-inf) ([1]; mice, PO 10 mg/kg): 45.2 µM·h
AUC(0-t) ([1]; mice, PO 10 mg/kg): 45.2 µM·h
Tmax ([1]; mice, PO 10 mg/kg): 1 h
MRT inf ([1]; mice, PO 10 mg/kg): 3.35 h
AUC(0-inf) ([1]; mice, PO 30 mg/kg): 73.1 µM·h
AUC(0-t) ([1]; mice, PO 30 mg/kg): 73.1 µM·h
Tmax ([1]; mice, PO 30 mg/kg): 0.417 h
Cmax [1, 7]: 17.5 µM
MRT inf ([1]; mice, PO 30 mg/kg): 3.65 h
AUC(0-inf) ([1]; mice, PO 100 mg/kg): 171 µM·h
AUC(0-t) ([1]; mice, PO 100 mg/kg): 171 µM·h
Tmax ([1]; mice, PO 100 mg/kg): 1.5 h
MRT inf ([1]; mice, PO 100 mg/kg): 3.71 h
CLz ([1]; mice, IV 2 mg/kg): 7.1 mL/min/kg
t½z ([1]; mice, IV 2 mg/kg): 1.062 h
F ([1]; mice, PO 10 mg/kg): 91.46%
t½z ([1]; mice, PO 10 mg/kg): 0.919 h
F ([1]; mice, PO 30 mg/kg): 49.31%
t½z ([1]; mice, PO 30 mg/kg): 0.918 h
F ([1]; mice, PO 100 mg/kg): 34.72%
t½z ([1]; mice, PO 100 mg/kg): 1.292 h
Remaining rate (NCF = 60 min) [2]: 100.2%
Remaining rate (T = 60 min) [2]: 68.9%
CLint scaled at 1 µM [2]: 25.8 mL/min/kg
half-life at 1 M [2]: 1.61 h
microsomal CLint at 1 µM [2]: 14.4 µL/min/mg
CLint scaled at 1 µM [3]: < 38 mL/min/kg
half-life at 1 M [3]: > 2.42 h
microsomal CLint at 1 M [3]: < 9.6 µL/min/mg
Remaining rate (NCF = 60 min) [3]: 97.6%
Remaining rate (T = 60 min) [3]: 79.8%
Remaining rate (NCF = 60 min) [4]: 98.9%
Remaining rate (T = 60 min) [4]: 86.6%
CLint scaled at 1 µM [4]: < 13.8 mL/min/kg
half-life [4]: > 2.42 h
microsomal CLint at 1 M [4]: < 9.6 µL/min/mg
SMILES: CC(F)(F)C(=O)N[C@@H]1CCCC[C@H]1N1Cc2ccc(-c3nnc(C(F)F)o3)cc2S1(=O)=O [Compound 1]

SMILES: O=C(N[C@@H]1CCCC[C@H]1N1Cc2ccc(-c3nnc(C(F)F)o3)cc2S1(=O)=O)C(F)F [Compound 2]
Cmax [1, 5]: 13.9 µM
Cmax [1, 6]: 87.9 µM
AUC(0-inf) ([1]; mice, IV 2 mg/kg): 12.6 µM·h
AUC(0-t) ([1]; mice, IV 2 mg/kg): 12.6 µM·h
Cmax ([1]; mice, IV 2 mg/kg (C0)): 6.75 µM
MRT inf ([1]; mice, IV 2 mg/kg): 2.35 h
Vd ([1]; mice, IV 2 mg/kg): 0.55 L/kg
AUC(0-inf) ([1]; mice, PO 10 mg/kg): 77.8 µM·h
AUC(0-t) ([1]; mice, PO 10 mg/kg): 77.7 µM·h
Tmax ([1]; mice, PO 10 mg/kg): 0.5 h
MRT inf ([1]; mice, PO 10 mg/kg): 4.5 h
AUC(0-inf) ([1]; mice, PO 30 mg/kg): 182 µM·h
AUC(0-t) ([1]; mice, PO 30 mg/kg): 182 µM·h
Tmax ([1]; mice, PO 30 mg/kg): 0.67 h
Cmax [1, 7]: 35 µM
MRT inf ([1]; mice, PO 30 mg/kg): 3.66 h
AUC(0-inf) ([1]; mice, PO 100 mg/kg): 601 µM·h
AUC(0-t) ([1]; mice, PO 100 mg/kg): 601 µM·h
Tmax ([1]; mice, PO 100 mg/kg): 1.33 h
MRT inf ([1]; mice, PO 100 mg/kg): 4.33 h
CLz ([1]; mice, IV 2 mg/kg): 6 mL/min/kg
t½z ([1]; mice, IV 2 mg/kg): 1.01 h
F ([1]; mice, PO 10 mg/kg): 123.92%
t½z ([1]; mice, PO 10 mg/kg): 1.62 h
F ([1]; mice, PO 30 mg/kg): 96.93%
t½z ([1]; mice, PO 30 mg/kg): 0.87 h
F ([1]; mice, PO 100 mg/kg): 95.71%
t½z ([1]; mice, PO 100 mg/kg): 0.81 h
Remaining rate (NCF = 60 min) [2]: 93.0%
Remaining rate (T = 60 min) [2]: 76.4%
CLint scaled at 1 µM [2]: < 17.3 mL/min/kg
half-life at 1 M [2]: > 2.42 h
microsomal CLint at 1 µM [2]: < 9.6 µL/min/mg
CLint scaled at 1 µM [3]: < 38 mL/min/kg
half-life at 1 M [3]: > 2.42 h
microsomal CLint at 1 M [3]: < 9.6 µL/min/mg
Remaining rate (NCF = 60 min) [3]: 99.8%
Remaining rate (T = 60 min) [3]: 84.8%
Remaining rate (NCF = 60 min) [4]: 90.9%
Remaining rate (T = 60 min) [4]: 85.8%
CLint scaled at 1 µM [4]: < 13.8 mL/min/kg
half-life [4]: > 2.42 h
microsomal CLint at 1 M [4]: < 9.6 µL/min/mg

SMILES: O=C(N[C@H]1[C@H](N2Cc3ccc(-c4nnc(C(F)F)o4)cc3S2(=O)=O)CCCC1(F)F)C(F)F [Compound 61]
Cmax [1, 5]: 12.6 µM
AUC(0-inf) ([1]; mice, IV 2 mg/kg): 15.4 µM·h
AUC(0-t) ([1]; mice, IV 2 mg/kg): 12.8 µM·h
Cmax ([1]; mice, IV 2 mg/kg (C0)): 4.52 µM
MRT inf ([1]; mice, IV 2 mg/kg): 4.38 h
Vd ([1]; mice, IV 2 mg/kg): 1.18 L/kg
AUC(0-inf) ([1]; mice, PO 10 mg/kg): 73.4 µM·h
AUC(0-t) ([1]; mice, PO 10 mg/kg): 57 µM·h
Tmax ([1]; mice, PO 10 mg/kg): 1 h
MRT inf ([1]; mice, PO 10 mg/kg): 5.3 h
CLz ([1]; mice, IV 2 mg/kg): 4.35 mL/min/kg
t½z ([1]; mice, IV 2 mg/kg): 3.12 h
F ([1]; mice, PO 10 mg/kg): 89.2%
t½z ([1]; mice, PO 10 mg/kg): 3.551 h
Remaining rate (NCF = 60 min) [2]: 88.24%
Remaining rate (T = 60 min) [2]: 72.95%
CLint scaled at 1 µM [2]: 19.4 mL/min/kg
half-life at 1 M [2]: 2.14 h
CLint scaled at 1 µM [3]: 18.6 mL/min/kg
half-life at 1 M [3]: 4.9 h
Remaining rate (NCF = 60 min) [3]: 83.81%
Remaining rate (T = 60 min) [3]: 85.14%

— patent US20250257060A1, “OXADIAZOLE COMPOUND, PHARMACEUTICAL COMPOSITION COMPRISING SAME, AND USE THEREOF” (SUZHOU GENHOUSE BIO CO., LTD., priority 2022, published 2025)
